Assay results reported in PMC9500974, “Ultrasonic-Assisted Synthesis of Benzofuran Appended Oxadiazole Molecules as Tyrosinase Inhibitors: Mechanistic Approach through Enzyme Inhibition, Molecular Docking, Chemoinformatics, ADMET and Drug-Likeness Studies” (International Journal of Molecular Sciences, 2022).

molecular target: bacterial tyrosinase (indigenously isolated from Bacillus subtilis NCTC 10400); assay: Tyrosinase inhibition assay (dopachrome formation, OD 475 nm); assay type: biochemical; details: L-tyrosine substrate, 25 °C, triplicates, mean ± SD
Method: The target derivatives were evaluated against tyrosinase enzyme (indigenously isolated from Bacillus subtilis NCTC 10400) inhibition. […] Structure-activity relationship (SAR) studies indicate that overall substituent-related tyrosinase activity decreases in the following way: 2-flouro > 2-chloro > 3,4-dichloro > 4-fluoro > 3,4-dimethyl > 2-methoxy > phenyl > 2,4-dimethyl > 2,5-dimethoxy > diethyl.
The bacterial tyrosinase enzyme isolation and preparation were fully described in our previously published paper and in other reported literature. A novel synthesized series of oxadiazole-based furan molecules were screened for anti-tyrosinase activity. Tyrosinase inhibition was investigated by modifying the reported methods of Kim. Briefly, phosphate buffer (0.05 M), L-tyrosine (765 µL; 2 mM) and tested compounds (35 µL) were incubated at ambient temperature for 10 min then bacterial tyrosinase (200 µL; about 48 U/mL) was added and the whole assay solution was allowed to stand at 25 °C for 2 min. The formation of dopachrome was monitored after incubation (2 min) by measuring the increase in optical density (OD) at λmax 475 nm. The stock solution for the entire synthesized series of oxadiazole-based furan moieties (1 mM) was prepared in DMSO (dimethyl sulfoxide). Five different dilutions of each oxadiazole-based furan moiety was prepared. Ascorbic acid (1 mM) was utilized for the standard tyrosinase inhibitor, and the values were expressed as IC50, the concentration of tested samples which caused the 50% inhibition. The percentage (%) of bacterial tyrosinase inhibitory activity was determine by utilizing the formula:(2) % Inhibition=A−BA×100
Here, A represents control enzyme, i.e., without inhibitor, while B represented the test sample, i.e., inhibitor.
The Prism software was used to analyze statistical data, while the results were measured in triplicates and depicted as mean ± SD.

IC50 | Structure (SMILES)
15.5 µM | O=C(CSc1nnc(-c2cc3cc(Br)ccc3o2)o1)Nc1ccc(F)cc1 [Compound 5d, 2-((5-(5-Bromobenzofuran-2-yl)-1,3,4-oxadiazol-2-yl)thio)-N-(4-fluorophenyl)acetamide]
12.7 µM | O=C(CSc1nnc(-c2cc3cc(Br)ccc3o2)o1)Nc1ccc(Cl)c(Cl)c1 [Compound 5c, 2-((5-(5-Bromobenzofuran-2-yl)-1,3,4-oxadiazol-2-yl)thio)-N-(3,4-dichlorophenyl)acetamide]
11.5 ± 1 µM | O=C1O[C@H]([C@@H](O)CO)C(O)=C1O [Ascorbic acid, reference compound]
48 ± 0.96 µM | COc1ccc(OC)c(NC(=O)CSc2nnc(-c3cc4cc(Br)ccc4o3)o2)c1 [Compound 5i, 2-((5-(5-Bromobenzofuran-2-yl)-1,3,4-oxadiazol-2-yl)thio)-N-(2,5-dimethoxyphenyl)acetamide]
25 ± 0.75 µM | Cc1ccc(NC(=O)CSc2nnc(-c3cc4cc(Br)ccc4o3)o2)cc1C [Compound 5e, 2-((5-(5-Bromobenzofuran-2-yl)-1,3,4-oxadiazol-2-yl)thio)-N-(3,4-dimethylphenyl)acetamide]
27 ± 1 µM | COc1ccccc1NC(=O)CSc1nnc(-c2cc3cc(Br)ccc3o2)o1 [Compound 5f, 2-((5-(5-Bromobenzofuran-2-yl)-1,3,4-oxadiazol-2-yl)thio)-N-(2-methoxyphenyl)acetamide]
11 ± 0.25 µM | O=C(CSc1nnc(-c2cc3cc(Br)ccc3o2)o1)Nc1ccccc1F [Compound 5a, 2-((5-(5-Bromobenzofuran-2-yl)-1,3,4-oxadiazol-2-yl)thio)-N-(2-fluorophenyl)acetamide]
49.5 ± 0.92 µM | CCN(CC)C(=O)CSc1nnc(-c2cc3ccccc3o2)o1 [Compound 5j]
36 ± 0.25 µM | Cc1ccc(NC(=O)CSc2nnc(-c3cc4cc(Br)ccc4o3)o2)c(C)c1 [Compound 5h, 2-((5-(5-Bromobenzofuran-2-yl)-1,3,4-oxadiazol-2-yl)thio)-N-(2,4-dimethylphenyl)acetamide]
30 ± 1.5 µM | O=C(CSc1nnc(-c2cc3cc(Br)ccc3o2)o1)Nc1ccccc1 [Compound 5g, 2-((5-(5-Bromobenzofuran-2-yl)-1,3,4-oxadiazol-2-yl)thio)-N-phenylacetamide]
12.4 µM | O=C(CSc1nnc(-c2cc3cc(Br)ccc3o2)o1)Nc1ccccc1Cl [Compound 5b, 2-((5-(5-Bromobenzofuran-2-yl)-1,3,4-oxadiazol-2-yl)thio)-N-(2-chlorophenyl)acetamide]
